In patent US7977061B2, “Ex vivo method for determining potential GLP-2 receptor modulators” (NPS Pharmaceuticals Inc., priority 2005, dated 2011):
Entries after “also recorded” stand apart in the source; their conditions may differ. Where two headings read alike, the source gives them in different places.

Molecular target: T1, GLP-2R (Rattus norvegicus, UniProt Q9Z0W0)
T1 construct: the described assay enables native GLP-2R characterization by the direct application of GLP-2 to intestinal tissue segments ex vivo; from tissue; host or cells: colon segments of male Sprague-Dawley rats
T1 sequence (Q9Z0W0 1-550): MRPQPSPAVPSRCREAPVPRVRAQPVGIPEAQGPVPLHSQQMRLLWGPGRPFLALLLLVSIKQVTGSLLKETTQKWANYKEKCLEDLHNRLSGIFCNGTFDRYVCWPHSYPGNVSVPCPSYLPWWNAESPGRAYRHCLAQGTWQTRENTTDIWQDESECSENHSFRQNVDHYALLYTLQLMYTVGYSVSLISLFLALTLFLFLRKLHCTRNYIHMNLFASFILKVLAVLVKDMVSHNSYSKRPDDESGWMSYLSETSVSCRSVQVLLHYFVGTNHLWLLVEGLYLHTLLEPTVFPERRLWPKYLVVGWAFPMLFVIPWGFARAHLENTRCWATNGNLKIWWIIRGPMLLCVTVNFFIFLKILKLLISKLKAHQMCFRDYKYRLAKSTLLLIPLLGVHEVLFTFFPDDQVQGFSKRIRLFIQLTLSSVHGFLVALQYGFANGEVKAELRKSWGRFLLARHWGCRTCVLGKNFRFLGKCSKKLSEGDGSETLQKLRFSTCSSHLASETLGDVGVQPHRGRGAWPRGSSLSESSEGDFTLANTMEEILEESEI
Experiment: Ex vivo organ bath assay of spontaneous contractility of rat colon segments
Conditions: for effect on spontaneous colon contractility: substance alone; for IC50: rat colon segments
Procedure: Segments of colon from male Sprague Dawley rats were suspended in organ bath chambers containing Krebs' solution and maintained at 37° C. with 95% O2 and 5% CO2. Basal tone, contractility rate and peak height were used to measure the properties of spontaneous and ligand-mediated colonic contractions. Segments were initially loaded to a tension of 2 g and allowed to equilibrate for 60 minutes. During this period, segments were repeatedly washed every 10 minutes. [gly2]GLP-2 (“Teduglutide”, a GLP-2 agonist) and GLP-2 analogues were subsequently incubated with each tissue segment for 5 to 10 minutes. The tissues were allowed to re-equilibrate with repeated washes following each experiment.
Male Sprague-Dawley (SD) rats (Charles River Canada, Quebec), weighing 200-250 g, were used for these studies. The animals were housed on contact bedding and kept with free access to food (Purina Rodent Diet) and water in a facility with regulated temperature and humidity, under an alternate 12-hour light/dark cycle. Animals were acclimatized for 3˜5 days prior to harvesting of tissues.
Rats were euthanized by decapitation. The entire intestine was quickly removed and placed in a Petri dish containing a Sylgard layer and 37° C. Krebs' solution bubbled with 95% O2 and 5% CO2. The Krebs' solution (pH 7.4) contained 118.1 mM NaCl, 25 mM NaHCO3, 4.7 mM KCl, 1.2 mM KH2PO4, 1.2 mM MgSO4.7H2O, 2.5 mM CaCl2.2H2O and 11 mM glucose. The colon was isolated, cleaned of superficial fat and mesentery and sectioned into eight 1-cm long segments. The lumen was cleaned by carefully flushing each segment with Krebs' solution using plastic transfer pipets. Segments were transferred to a separate Petri dish containing fresh Krebs' solution and suture threads were tied to both ends of each segment. Tissues were suspended longitudinally using surgical suture, one end attached to the transducer on the top and the other to the tissue holder at the bottom of 20 ml organ bath chambers containing Krebs' solution, maintained at 37° C. with 95% O2 and 5% CO2. Isometric tensions were continuously measured using calibrated force displacement transducers and data was collected and processed by the MP100WSW system with AcqKnowledge software
Segments of colon were initially loaded to a tension of 2 g and allowed to equilibrate for a 60 min period. During this period, segments were washed with Krebs' solution at 10 minutes intervals. When the tissues obtained regular and stable contraction patterns, GLP-2 agonist response experiments were conducted by the addition of eight concentrations of compound into eight separate organ baths for 5-10 minutes. Routinely, one-hour washes were interspersed between repeat applications of compounds to allow for recovery. The effect of GLP-2(3-33) on GLP-2 agonist analogues were conducted by pre-incubating colon segments with 1 or 10 uM GLP-2(3-33) for 5-10 minutes. Then agonist responses were measured at various concentrations as described above.
Tension was measured by changes in peak height. Data were calculated and expressed as percentage response relative to the basal level (prior to the experiment). Graphs and IC50 determinations were plotted by the percentage response in GraphPad Prism (v 3.02). In order to assess the significance of the effect of GLP-2 and Teduglutide paired t-tests were conducted on the Log [IC50] values.

| Molecule | effect on GLP-2(1-33)-induced inhibition of colon contractility (rat colon, 1 μM and 10 μM test substance, agonist GLP-2(1-33)) | effect on teduglutide-induced inhibition of rat colon contractility (rat colon, 1 μM and 10 μM test substance, agonist teduglutide) | effect on spontaneous colon contractility (rat colon) | IC50 (agonist alone, read-out: estimated IC50, inhibition of colon contractility) [nM] | IC50 (pre-incubated with 1 μM GLP-2(3-33), read-out: estimated IC50, inhibition of colon contractility in the presence of GLP-2(3-33)) [nM] | IC50 (pre-incubated with 10 μM GLP-2(3-33), read-out: estimated IC50, inhibition of colon contractility in the presence of GLP-2(3-33)) [nM] |
| --- | --- | --- | --- | --- | --- | --- |
| GLP-2(3-33) (DGSFSDEMNTILDNLAARDFINWLIQTKITD; Glucagon-like peptide 2; UniProt P01275 148-178, looked up, fragment) [a GLP-2 antagonist/partial agonist] | blocked GLP-2(1-33)-induced inhibition of colon contractility; also recorded: blocked the inhibitory effects; also recorded: blocks the effect of GLP-2(1-33) in a concentration-dependent manner | blocked teduglutide-induced inhibition of colon contractility; also recorded: blocked the inhibitory effects | no effect alone |  |  |  |
| CC[C@H](C)[C@H](NC(=O)[C@H](Cc1ccccc1)NC(=O)[C@H](CC(=O)O)NC(=O)[C@H](CCCNC(=N)N)NC(=O)[C@H](C)NC(=O)[C@H](C)NC(=O)[C@H](CC(C)C)NC(=O)[C@H](CC(N)=O)NC(=O)[C@H](CC(=O)O)NC(=O)[C@H](CC(C)C)NC(=O)[C@@H](NC(=O)[C@@H](NC(=O)[C@H](CC(N)=O)NC(=O)[C@H](CCSC)NC(=O)[C@H](CCC(=O)O)NC(=O)[C@H](CC(=O)O)NC(=O)[C@H](CO)NC(=O)[C@H](Cc1ccccc1)NC(=O)[C@H](CO)NC(=O)CNC(=O)[C@H](CC(=O)O)NC(=O)CNC(=O)[C@@H](N)Cc1c[nH]cn1)[C@@H](C)O)[C@@H](C)CC)C(=O)N[C@@H](CC(N)=O)C(=O)N[C@@H](Cc1c[nH]c2ccccc12)C(=O)N[C@@H](CC(C)C)C(=O)N[C@H](C(=O)N[C@@H](CCC(N)=O)C(=O)N[C@H](C(=O)N[C@@H](CCCCN)C(=O)N[C@H](C(=O)N[C@H](C(=O)N[C@@H](CC(=O)O)C(=O)O)[C@@H](C)O)[C@@H](C)CC)[C@@H](C)O)[C@@H](C)CC [Teduglutide, [gly2]GLP-2] |  |  | inhibited spontaneous colon contractility in a concentration-dependent manner | 4.9 ± 1.9 | 34.7 ± 15.1 | 59.9 ± 11.9 |
| CC[C@H](C)[C@H](NC(=O)[C@H](Cc1ccccc1)NC(=O)[C@H](CC(=O)O)NC(=O)[C@H](CCCNC(=N)N)NC(=O)[C@H](C)NC(=O)[C@H](C)NC(=O)[C@H](CC(C)C)NC(=O)[C@H](CC(N)=O)NC(=O)[C@H](CC(=O)O)NC(=O)[C@H](CC(C)C)NC(=O)[C@@H](NC(=O)[C@@H](NC(=O)[C@H](CC(N)=O)NC(=O)[C@H](CCSC)NC(=O)[C@H](CCC(=O)O)NC(=O)[C@H](CC(=O)O)NC(=O)[C@H](CO)NC(=O)[C@H](Cc1ccccc1)NC(=O)[C@H](CO)NC(=O)CNC(=O)[C@H](CC(=O)O)NC(=O)[C@H](C)NC(=O)[C@@H](N)Cc1c[nH]cn1)[C@@H](C)O)[C@@H](C)CC)C(=O)N[C@@H](CC(N)=O)C(=O)N[C@@H](Cc1c[nH]c2ccccc12)C(=O)N[C@@H](CC(C)C)C(=O)N[C@H](C(=O)N[C@@H](CCC(N)=O)C(=O)N[C@H](C(=O)N[C@@H](CCCCN)C(=O)N[C@H](C(=O)N[C@H](C(=O)N[C@@H](CC(=O)O)C(=O)O)[C@@H](C)O)[C@@H](C)CC)[C@@H](C)O)[C@@H](C)CC [GLP-2(1-33)] |  |  | inhibits spontaneous colon contractility in a concentration-dependent manner |  |  |  |
